The source of these data is US6489440B1, “Cyclic compounds” (Basilea Pharmaceutica AG, priority 1998, dated 2002).

Numbered stars: 1 amine (or outer) side, 2 acyl side, 3 side chain; on linkers, the order of the positions; unused ones are H or OH. Bridge positions count the residues as written; N and C are the ends. Square brackets hold non-standard residues; d marks the D form. Peptide text beside a SMILES is read from it. * marks the point of attachment. ξ: configuration not given here. pTerphenylCO(4''-OnC5H11) = CCCCCOc1ccc(-c2ccc(-c3ccc(C(=O)*)cc3)cc2)cc1; Orn(4R-OH,5R-OH) = O=C([C@H](C[C@@H](O)[C@@H](O)N[*:3])N[*:1])[*:2]; X8 = O=C(C[C@@H](CCc1ccc(-c2ccc(OCCCc3ccccc3)cc2)cc1)N[*:2])[*:1]; hTyr(3S-OH,4S-OH) = N[C@H](C(=O)O)[C@H](O)[C@@H](O)c1ccc(O)cc1; X5 = CC(C)CCCOc1ccc(-c2ccc(CC[C@H](CC(=O)[*:1])N[*:2])cc2)cc1; X13 = CCCCCOc1ccc(-c2ccc(CC[C@H](CC(=O)[*:1])N[*:2])cc2)cc1; X10 = CCCCCCCCCOc1ccc2cc(CC[C@H](CC(=O)[*:1])N[*:2])ccc2c1; Pro(3S-OH,4S-Me) = C[C@H]1CN[C@H](C(=O)O)[C@H]1O; X6 = CCCCCCCCCCCCC[C@H](CC(=O)NC(C(=O)O)C(C)O)O*; X12 = NCC(=O)Nc1cc(CC(N[*:1])C(=O)[*:2])ccc1O; X9 = CCCCCCCCCCCCC[C@H](CC(=O)[*:1])O[*:2]; X2 = NC(=O)CC(O)C(N[*:1])C(=O)[*:2]; ξDopa = NC(Cc1ccc(O)c(O)c1)C(=O)O; Hyp = O=C(O)[C@@H]1C[C@@H](O)CN1; X1 = O=C(C1C(O)CCN1[*:1])[*:2]; ξY = NC(Cc1ccc(O)cc1)C(=O)O; ξHyp = O=C(O)C1CC(O)CN1; ξOrn = NCCCC(N)C(=O)O; ξT = CC(O)C(N)C(=O)O; ξV = CC(C)C(N)C(=O)O; ξP = O=C(O)C1CCCN1; ξA = CC(N)C(=O)O; Sar = CNCC(=O)O

Data set [1] concerns mouse hepatocytes. Put plainly: In vitro hepatotoxicity test. The class given is cell-based. The following applies: mouse hepatocyte monolayers exposed 1 day, morphological evaluation. An excerpt:
The mouse hepatocytes were isolated by a collagenase digestion and cultured in microtest plates. The hepatocyte monolayers were exposed to the test Aerothricins in the culture system for 1 day. After the culture period, the hepatocytes were observed under a microscope and evaluated morphologically. The degree of the morphological alteration (degeneration) of the hepatocytes by the test Aerothricins were compared with WF 11243 and LY303366.

Data set [2] is described as follows: Solubility. The following applies: solvents in which soluble.
The test system of data set [3] is Candida albicans. Kind of data set: In vivo antifungal efficacy, systemic candidiasis in mice. The following applies: i.v., b.i.d×1 day followed by q.d.×2 days; from survival on day 14. Set-up: species or system Crj: CD-1 (ICR) mice. The protocol: Mice of a conventional immunocompetent mouse strain, Crj: CD-1 (ICR) were used for experimental infection models of systemic candidiasis. 4 weeks old Crj: CD-1 (ICR) mice were used for systemic candidiasis by injecting Candida albicans 5×10^6 conidia/mouse via the tail vein. Treatments were given twice (0, 4 h after infection) on the first day and once daily on following 2 days for systemic candidiasis (b.i.d×1 day followed by q.d.×2 days), intravenously (i.v.). 50% of effective dose (ED50) values was calculated from the survival number at each dose on day 14.

In data set [1], `CCCCCCCCCCOc1ccc(CC[C@@H]2CC(=O)NC(C(C)O)C(=O)NC(C)C(=O)NC(Cc3ccc(O)cc3)C(=O)NC(C(C)C)C(=O)N3CC(O)CC3C(=O)NC(C(C)O)C(=O)NC(C(C)O)C(=O)N3CCC(O)C3C(=O)NC(C(O)CC(N)=O)C(=O)NCC(=O)NC(C(C)O)C(=O)NC(CCCN)C(=O)N2)cc1` (single isomer, unassigned) [Aerothricin 47] registered a Cytotoxicity to hepatocyte of more than 100 µg/mL.

For the molecule `CCCCCCCCCCCCC[C@@H]1CC(=O)NC(C(C)O)C(=O)NC(C)C(=O)NC(Cc2ccc(O)c(O)c2)C(=O)NC(C(C)C)C(=O)N2CC(O)CC2C(=O)NC(C(C)O)C(=O)NC(C(C)O)C(=O)N2CCC(O)C2C(=O)NC(C(O)CC(N)=O)C(=O)NCC(=O)NC(C(C)O)C(=O)NC(CCCN)C(=O)O1` (some centres unmarked) [Aerothricin 2] ([ξT][ξA][ξDopa][ξV][ξHyp][ξT][ξT][X1][X2]G[ξT][ξOrn]; linker N-C via X9), the Solubility result in data set [2] is on record as “Soluble: water, methanol, dimethylsulfoxide”.

For `CCCCCCCCCCCCC[C@@H]1CC(=O)NC(C(C)O)C(=O)NC(C)C(=O)NC(Cc2ccc(OC)cc2)C(=O)NC(C(C)C)C(=O)N2CC(O)CC2C(=O)NC(C(C)O)C(=O)NC(C(C)O)C(=O)N2CCC(O)C2C(=O)NC(C(O)CC(N)=O)C(=O)NCC(=O)NC(C(C)O)C(=O)NC(CCCN)C(=O)O1` (some centres unmarked) [Aerothricin 5] ([ξT][ξA][ξY](Me)[ξV][ξHyp][ξT][ξT][X1][X2]G[ξT][ξOrn]; linker N-C via X9), the “In vivo antifungal activity against systemic candidiasis in mice, ED50 on day 14” value (“In vivo antifungal activity” below) in data set [3] amounted to 0.3 mg/kg.

For `CCCCCCCCCCCCC[C@@H]1CC(=O)NC(C(C)O)C(=O)NC(C)C(=O)NC(Cc2ccc(O)cc2)C(=O)NC(C(C)C)C(=O)N2CC(O)CC2C(=O)NC(C(C)O)C(=O)NC(C(C)O)C(=O)N2CCC(O)C2C(=O)NC(C(O)CC(N)=O)C(=O)NCC(=O)NC(C(C)O)C(=O)NC(CCCNC(=O)CNC)C(=O)O1` (some centres unmarked) [Aerothricin 14] ([ξT][ξA][ξY][ξV][ξHyp][ξT][ξT][X1][X2]G[ξT][ξOrn](Sar); linker N-C via X9), the Cytotoxicity to hepatocyte in data set [1] is more than 100 µg/mL.

Molecule `CCCCCCCCCCCCC[C@@H]1CC(=O)NC(C(C)O)C(=O)NC(C)C(=O)NC(Cc2ccc(O)cc2)C(=O)NC(C(C)C)C(=O)N2CC(O)CC2C(=O)NC(C(C)O)C(=O)NC(C(C)O)C(=O)N2CCC(O)C2C(=O)NC(C(O)CC(N)=O)C(=O)NCC(=O)NC(C(C)O)C(=O)NC(CCCNC(=O)C2CCCN2)C(=O)O1` (some centres unmarked) [Aerothricin 15] ([ξT][ξA][ξY][ξV][ξHyp][ξT][ξT][X1][X2]G[ξT][ξOrn](ξP); linker N-C via X9) gave a Cytotoxicity to hepatocyte in data set [1] of more than 100 µg/mL.

`CCCCCCCCCCCCC[C@@H]1CC(=O)NC(C(C)O)C(=O)NC(C)C(=O)NC(Cc2ccc(O)c(NC(=O)CN)c2)C(=O)NC(C(C)C)C(=O)N2CC(O)CC2C(=O)NC(C(C)O)C(=O)NC(C(C)O)C(=O)N2CCC(O)C2C(=O)NC(C(O)CC(N)=O)C(=O)NCC(=O)NC(C(C)O)C(=O)NC(CCCNC(=O)CN)C(=O)O1` (some centres unmarked) [Aerothricin 21] ([ξT][ξA][X12][ξV][ξHyp][ξT][ξT][X1][X2]G[ξT][ξOrn](Gly); linker N-C via X9) gave a Cytotoxicity to hepatocyte in data set [1] of more than 100 µg/mL.

For the molecule `CCCCCCCCCCOc1ccc(CC[C@@H]2CC(=O)NC(C(C)O)C(=O)NC(C)C(=O)NC(Cc3ccc(O)cc3)C(=O)NC(C(C)C)C(=O)N3CC(O)CC3C(=O)NC(C(C)O)C(=O)NC(C(C)O)C(=O)N3CCC(O)C3C(=O)NC(C(O)CC(N)=O)C(=O)NCC(=O)NC(C(C)O)C(=O)NC(CCCN)C(=O)N2)cc1` (some centres unmarked) [Aerothricin 36], the “In vivo antifungal activity” value in data set [3] worked out at 0.6 mg/kg.

Regarding `CCCCCOc1ccc(-c2ccc(CC[C@@H]3CC(=O)NC(C(C)O)C(=O)NC(C)C(=O)NC(Cc4ccc(O)cc4)C(=O)NC(C(C)C)C(=O)N4CC(O)CC4C(=O)NC(C(C)O)C(=O)NC(C(C)O)C(=O)N4CCC(O)C4C(=O)NC(C(O)CC(N)=O)C(=O)NCC(=O)NC(C(C)O)C(=O)NC(CCCN)C(=O)N3)cc2)cc1` (some centres unmarked) [Aerothricin 41] ([ξT][ξA][ξY][ξV][ξHyp][ξT][ξT][X1][X2]G[ξT][ξOrn]; linker N-C via X13), the “In vivo antifungal activity” value in data set [3] is 0.3 mg/kg.

Consider `CC(C)CCCOc1ccc(-c2ccc(CC[C@@H]3CC(=O)NC(C(C)O)C(=O)NC(C)C(=O)NC(Cc4ccc(O)cc4)C(=O)NC(C(C)C)C(=O)N4CC(O)CC4C(=O)NC(C(C)O)C(=O)NC(C(C)O)C(=O)N4CCC(O)C4C(=O)NC(C(O)CC(N)=O)C(=O)NCC(=O)NC(C(C)O)C(=O)NC(CCCN)C(=O)N3)cc2)cc1` (some centres unmarked) [Aerothricin 45] ([ξT][ξA][ξY][ξV][ξHyp][ξT][ξT][X1][X2]G[ξT][ξOrn]; linker N-C via X5), for which the Cytotoxicity to hepatocyte in data set [1] is more than 100 µg/mL. Also, in data set [3], the “In vivo antifungal activity” value stood at 0.3 mg/kg.

In the case of `CC1NC(=O)C(C(C)O)NC(=O)C[C@@H](CCc2ccc(-c3ccc(OCCCc4ccccc4)cc3)cc2)NC(=O)C(CCCN)NC(=O)C(C(C)O)NC(=O)CNC(=O)C(C(O)CC(N)=O)NC(=O)C2C(O)CCN2C(=O)C(C(C)O)NC(=O)C(C(C)O)NC(=O)C2CC(O)CN2C(=O)C(C(C)C)NC(=O)C(Cc2ccc(O)cc2)NC1=O` (some centres unmarked) [Aerothricin 46] ([ξT][ξA][ξY][ξV][ξHyp][ξT][ξT][X1][X2]G[ξT][ξOrn]; linker N-C via X8), in data set [3], the “In vivo antifungal activity” value is 0.4 mg/kg.

Take `CCCCCCCCCOc1ccc2cc(CC[C@@H]3CC(=O)NC(C(C)O)C(=O)NC(C)C(=O)NC(Cc4ccc(O)cc4)C(=O)NC(C(C)C)C(=O)N4CC(O)CC4C(=O)NC(C(C)O)C(=O)NC(C(C)O)C(=O)N4CCC(O)C4C(=O)NC(C(O)CC(N)=O)C(=O)NCC(=O)NC(C(C)O)C(=O)NC(CCCN)C(=O)N3)ccc2c1` (some centres unmarked) [Aerothricin 53] ([ξT][ξA][ξY][ξV][ξHyp][ξT][ξT][X1][X2]G[ξT][ξOrn]; linker N-C via X10): the Cytotoxicity to hepatocyte in data set [1] is more than 100 µg/mL.

With `CCCCCCCCCCCCC[C@H](CC(=O)NC(C(=O)O)C(C)O)OC(=O)C(CCCN)NC(=O)C(NC(=O)CNC(=O)C(NC(=O)C1C(O)CCN1C(=O)C(NC(=O)C(NC(=O)C1CC(O)CN1C(=O)C(N)C(C)C)C(C)O)C(C)O)C(O)CC(N)=O)C(C)O` (some centres unmarked) [Compound (IX)] (H-[ξV][ξHyp][ξT][ξT][X1][X2]G[ξT][ξOrn]-X6), in data set [2], the Solubility result is recorded as “Soluble: water, methanol, dimethylsulfoxide”.

Take `CCCCCOc1ccc(-c2ccc(-c3ccc(C(=O)N[C@H]4C[C@@H](O)[C@@H](O)NC(=O)[C@@H]5[C@@H](O)[C@@H](C)CN5C(=O)[C@H]([C@@H](C)O)NC(=O)[C@H]([C@H](O)[C@@H](O)c5ccc(O)cc5)NC(=O)[C@@H]5C[C@@H](O)CN5C(=O)[C@H]([C@@H](C)O)NC4=O)cc3)cc2)cc1` [LY303366, reference compound] ({pTerphenylCO(4''-OnC5H11)}-[Orn(4R-OH,5R-OH)]T[Hyp][hTyr(3S-OH,4S-OH)]T[Pro(3S-OH,4S-Me)]; lactam 1-C): the Cytotoxicity to hepatocyte in data set [1] is 10 µg/mL.
